Laboratory results as given in US9751881B2, “Inhibitors of the renal outer medullary potassium channel” (Merck Sharp & Dohme Corp., priority 2013, dated 2017).

What follows are molecules tested against hROMK (hKir1.1) (Homo sapiens (Human), UniProt P48048) (assay: Thallium Flux Assay (ROMK channel functional thallium flux, FLIPR-Tetra)). Conditions: HEK293 cells stably expressing hROMK (hKir1.1); unit not given in Table 4 (IC50 potencies less than 1 μM); read-out: ROMK TI IC50.
Assay type: cell-based
Procedure: Cell Culture Conditions—HEK293 cells stably expressing hROMK (hKir1.1) were grown at 37° C. in a 10% CO2 humidified incubator in complete growth media: Dulbecco's Modified Eagle Medium supplemented with non-essential amino acids, Penicillin/Streptomycin/Glutamine, G418 and FBS. At >80% confluency, the media was aspirated from the flask and rinsed with 10 mL calcium/magnesium-free PBS. […] To dislodge the cell, the side of the flask was gently banged with one's hand. The cells completely titrated and then the cells were transferred to 25 mL complete media, centrifuged at 1,500 rpm for 6 min followed by resuspension in complete growth media and determine cell concentration. […] Under ideal growth conditions and appropriate tissue culture practices, this cell line is stable for 40-45 passages.
FluxOR Kit Components (Invitrogen F10017)
• FluxOR™ Reagent (Component A) • FluxOR™ Assay Buffer (Component B)—10× Concentrate • PowerLoad™ Concentrate (Component C)—100× Concentrate • Probenecid (Component D)—Lyophilized sample is kept at −20° C. Water soluble, 100× after solubilization in 1 mL water. […] Store at 4° C. • Thallium sulfate (Tl2SO4) Concentrate (Component G)—50 mM in water. […] Can be stored at room temperature • Stimulant Buffer (prepared at 5× final concentration in 1× FluxOR™Chloride-Free Buffer): 7.5 mM thallium sulfate and 0.75 mM potassium sulfate (to give a final assay concentration of 3 mM Thallium/0.3 mM potassium). Store at 4° C. when not in use. If kept sterile, this solution is good for months.
• 1. Seed HEK-hKir1.1 cells (50 μl at 20,000 cells/well) in 384-well PDL coated Microplates • 2. Allow cells to adhere overnight in humidified 37° C./10% CO2 incubator • 3. Completely remove cell growth media from microplate and replace with 25 μl loading buffer • 4. Incubate Microplate at room temperature, protected form light, for 90 min • 5. Remove loading buffer and replace with 25 μl 1× Assay Buffer±test compound. • 6. Incubate microplate at room temperature, protected from light, for 30 min • 7. […] Excitation=400 nm, Emission=460 & 580 nm. Collect data for ˜10 min.
Data Calculation—The fluorescence intensity of wells containing 3 μM of a standard control ROMK inhibitor of the present invention was used to define the ROMK-sensitive component of thallium flux. Fluorescence in the presence of test compounds was normalized to control values to provide % fluorescence change.

Sequence of hROMK (hKir1.1) (P48048 whole entry): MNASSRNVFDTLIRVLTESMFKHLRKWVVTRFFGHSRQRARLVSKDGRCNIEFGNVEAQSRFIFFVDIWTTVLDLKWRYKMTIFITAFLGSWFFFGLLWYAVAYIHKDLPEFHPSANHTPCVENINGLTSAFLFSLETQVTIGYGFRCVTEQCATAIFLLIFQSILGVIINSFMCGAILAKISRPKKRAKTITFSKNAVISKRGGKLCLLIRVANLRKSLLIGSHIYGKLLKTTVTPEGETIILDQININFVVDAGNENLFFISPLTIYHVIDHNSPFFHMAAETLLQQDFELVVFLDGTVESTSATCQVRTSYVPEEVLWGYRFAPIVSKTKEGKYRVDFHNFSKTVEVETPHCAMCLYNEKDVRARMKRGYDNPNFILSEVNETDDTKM

Question: Which IC50 does the source give for `Cc1c([C@@H](O)CN2CCC3(CC2)CCN(c2cnc(S(C)(=O)=O)cn2)C3)ccc2c1COC2=O` [Example 33, (R)-5-(1-Hydroxy-2-(2-(5-(methylsulfonyl)pyrazin-2-yl)-2,8-diazaspiro[4.5]decan-8-yl)ethyl)-4-methylisobenzofuran-1(3H)-one] here?
Answer: 44.1 nM

Question: For `Cc1c([C@@H](O)CN2CCC3(CC2)CC(=O)N(c2ccc(S(C)(=O)=O)cn2)C3)ccc2c1COC2=O` [Example 34, (R)-8-(2-Hydroxy-2-(4-methyl-1-oxo-1,3-dihydroisobenzofuran-5-yl)ethyl)-2-(5-(methylsulfonyl)pyridin-2-yl)-2,8-diazaspiro[4.5]decan-3-one], which IC50 is on record?
Answer: 53.4 nM

Question: With `Cc1c([C@@H](O)CN2CCC3(CC2)CC(=O)N(c2cnc(S(C)(=O)=O)cn2)C3)ccc2c1COC2=O` [Example 35, (R)-8-(2Hydroxy-2-(4-methyl-1-oxo-1,3-dihydroisobenzofuran-5-yl)ethyl)-2-(5-(methylsulfonyl)pyrazin-2-yl)-2,8-diazaspiro[4.5]decan-3-one] as the molecule, how does the IC50 read?
Answer: 74.2 nM

Question: Which IC50 does the source give for `Cc1nc(N2CCC3(CCN(C[C@H](O)c4ccc5c(c4C)COC5=O)CC3)C2)ccc1S(C)(=O)=O` [Example 36, (R)-5-(1-Hydroxy-2-(2-(6-methyl-5-(methylsulfonyl)pyridin-2-yl)-2,8-diazaspiro[4.5]decan-8-yl)ethyl)-4-methylisobenzofuran-1(3H)-one] here?
Answer: 75.7 nM

Question: Which IC50 does the source give for `Cc1c([C@@H](O)CN2CCC3(CC2)CC(=O)N(c2ncc(S(C)(=O)=O)s2)C3)ccc2c1COC2=O` [Example 37, (R)-8-(2-Hydroxy-2-(4-methyl-1-oxo-1,3-dihydroisobenzofuran-5-yl)ethyl)-2-(5-(methylsulfonyl)thiazol-2-yl)-2,8-diazaspiro[4.5]decan-3-one] here?
Answer: 87.5 nM

Question: With `Cc1c([C@@H](O)CN2CCC3(CC2)CCN(c2ncc(S(C)(=O)=O)s2)C3)ccc2c1COC2=O` [Example 38, (R)-5-(1-Hydroxy-2-(2-(5-(methylsulfonyl)thiazol-2-yl)-2,8-diazaspiro[4.5]decan-8-yl)ethyl)-4-methylisobenzofuran-1(3H)-one] as the molecule, how does the IC50 read?
Answer: 60 nM

Question: How did the IC50 turn out when `Cc1cc2c(cc1C(O)CN1CCC3(CC1)CCN(c1ccc(S(C)(=O)=O)cn1)C3)COC2=O` (stereo not shown) [Example 39, 5-(1-Hydroxy-2-(2-(5-(methylsulfonyl)pyridin-2-yl)-2,8-diazaspiro[4.5]decan-8-yl)ethyl)-6-methylisobenzofuran-1(3H)-one] was run?
Answer: 195 nM

Question: `COc1cc(C(O)CN2CCC3(CC2)CCN(c2ccc(S(C)(=O)=O)cn2)C3)c(Cl)cc1C#N` (stereo not shown) [Example 40, 5-Chloro-4-(1-hydroxy-2-(2-(5-(methylsulfonyl)pyridin-2-yl)-2,8-diazaspiro[4.5]decan-8-yl)ethyl)-2-methoxybenzonitrile] was tested. Which IC50 did it give?
Answer: 168 nM

Question: With `Cc1c([C@@H](O)CN2CCC3(CC2)CCN(c2ncc(S(C)(=O)=O)cn2)C3)ccc2c1COC2=O` [Example 41, (R)-5-(1-Hydroxy-2-(2-(5-(methylsulfonyl)pyrimidin-2-yl)-2,8-diazaspiro[4.5]decan-8-yl)ethyl)-4-methylisobenzofuran-1(3H)-one] as the molecule, how does the IC50 read?
Answer: 101 nM

Question: Which IC50 does the source give for `Cc1c([C@@H](O)CN2CCC3(CC2)CCN(c2cnc(S(C)(=O)=O)cn2)C3=O)ccc2c1COC2=O` [Example 42, (R)-8-(2-Hydroxy-2-(4-methyl-1-oxo-1,3-dihydroisobenzofuran-5-yl)ethyl)-2-(5-(methylsulfonyl)pyrazin-2-yl)-2,8-diazaspiro[4.5]decan-1-one] here?
Answer: 216 nM

Question: Which IC50 does the source give for `Cc1c([C@@H](O)CN2CCC3(CCCN(c4ncc(-n5cnnn5)cn4)C3)CC2)ccc2c1COC2=O` [Example 43, (R)-5-(2-(2-(5-(1H-tetrazol-1-yl)pyrimidin-2-yl)-2,9-diazaspiro[5.5]undecan-9-yl)-1-hydroxyethyl)-4-methylisobenzofuran-1(3H)-one] here?
Answer: 37 nM

Question: For `Cc1c([C@@H](O)CN2CCC3(CC2)CN(c2ccc(C#N)cn2)C3=O)ccc2c1COC2=O` [Example 44, (R)-6-(7-(2-Hydroxy-2-(4-methyl-1-oxo-1,3-dihydroisobenzofuran-5-yl)ethyl)-1-oxo-2,7-diazaspiro[3.5]nonan-2-yl)nicotinonitrile], which IC50 is on record?
Answer: 369 nM

Question: With `Cc1c([C@@H](O)CN2CCC3(CC2)CN(c2ccc(C#N)cn2)C3)ccc2c1COC2=O` [Example 45, (R)-6-(7-(2-Hydroxy-2-(4-methyl-1-oxo-1,3-dihydroisobenzofuran-5-yl)ethyl)-2,7-diazaspiro[3.5]nonan-2-yl)nicotinonitrile] as the molecule, how does the IC50 read?
Answer: 104 nM

Question: `Cc1c([C@@H](O)CN2CCC3(CC2)CN(c2ccc(S(C)(=O)=O)nc2)C3)ccc2c1COC2=O` [Example 46, (R)-5-(1-Hydroxy-2-(2-(6-(methylsulfonyl)pyridin-3-yl)-2,7-diazaspiro[3.5]nonan-7-yl)ethyl)-4-methylisobenzofuran-1(3H)-one] was tested. Which IC50 did it give?
Answer: 256 nM

Question: `Cc1c([C@@H](O)CN2CCC3(CC2)CN(c2ccc(S(C)(=O)=O)cn2)C3)ccc2c1COC2=O` [Example 47, (R)-5-(1-Hydroxy-2-(2-(5-(methylsulfonyl)pyridin-2-yl)-2,7-diazaspiro[3.5]nonan-7-yl)ethyl)-4-methylisobenzofuran-1(3H)-one] was tested. Which IC50 did it give?
Answer: 220 nM

Question: With `Cc1c([C@@H](O)CN2CCC3(CC2)CN(c2ccc(S(C)(=O)=O)nn2)C3)ccc2c1COC2=O` [Example 48, (R)-5-(1-Hydroxy-2-(2-(6-(methylsulfonyl)pyridazin-3-yl)-2,7-diazaspiro[3.5]nonan-7-yl)ethyl)-4-methylisobenzofuran-1(3H)-one] as the molecule, how does the IC50 read?
Answer: 71 nM

Question: How did the IC50 turn out when `Cc1c([C@@H](O)CN2CCC3(CC2)CN(c2cnc(S(C)(=O)=O)cn2)C3)ccc2c1COC2=O` [Example 49, (R)-5-(1-Hydroxy-2-(2-(5-(methylsulfonyl)pyrazin-2-yl)-2,7-diazaspiro[3.5]nonan-7-yl)ethyl)-4-methylisobenzofuran-1(3H)-one] was run?
Answer: 118 nM

Question: With `COc1cc(N2CC3(CCN(C[C@H](O)c4ccc5c(c4C)COC5=O)CC3)C2)ncc1C#N` [Example 50, (R)-6-(7-(2-hydroxy-2-(4-methyl-1-oxo-1,3-dihydroisobenzofuran-5-yl)ethyl)-2,7-diazaspiro[3.5]nonan-2-yl)-4-methoxynicotinonitrile] as the molecule, how does the IC50 read?
Answer: 42.4 nM

Question: `C[C@H]1Cc2cc(C(O)CN3CCC4(CC3)CN(c3ccc(C#N)cn3)C4)ccc2C(=O)O1` (stereo partly drawn) [Example 52A, 6-(7-(2-Hydroxy-2-((S)-3-methyl-1-oxoisochroman-6-yl)ethyl)-2,7-diazaspiro[3.5]nonan-2-yl)nicotinonitrile] was tested. Which IC50 did it give?
Answer: 48.7 nM

Question: How did the IC50 turn out when `C[C@@H]1Cc2cc(C(O)CN3CCC4(CC3)CN(c3ccc(C#N)cn3)C4)ccc2C(=O)O1` (stereo partly drawn) [Example 52B, 6-(7-(2-Hydroxy-2-((R)-3-methyl-1-oxoisochroman-6-yl)ethyl)-2,7-diazaspiro[3.5]nonan-2-yl)nicotinonitrile] was run?
Answer: 69.9 nM

Question: Which IC50 does the source give for `Cc1c([C@@H](O)CN2CCC3(CCN(c4ccc(C#N)cn4)CC3)C2)ccc2c1COC2=O` [Example 53, (R)-6-(2-(2-Hydroxy-2-(4-methyl-1-oxo-1,3-dihydroisobenzofuran-5-yl)ethyl)-2,8-diazaspiro[4.5]decan-8-yl)nicotinonitrile] here?
Answer: 19 nM

Question: Which IC50 does the source give for `Cc1c([C@@H](O)CN2CCC3(CCN(c4ncc(-n5cnnn5)cn4)CC3)C2)ccc2c1COC2=O` [Example 54, (R)-5-(2-(8-(5-(1H-tetrazol-1-yl)pyrimidin-2-yl)-2,8-diazaspiro[4.5]decan-2-yl)-1-hydroxyethyl)-4-methylisobenzofuran-1(3H)-one] here?
Answer: 262 nM
